Reference: patent publication US4152436A, “Acylated pentadienone hydrazone, method for preparing the same, and use as fire ant control agents” (American Cyanamid Company, priority 1978, dated 1979)

What was measured:
Type in all cases: in vivo
[1] = system: Tobacco Budworm [Heliothis virescens (Fabricius)]; assay: Insecticide test, tobacco budworm 1st instar (eggs / newly hatched larvae on dipped cotton leaf); conditions: 72 h, read-out: % kill, Tobacco Budworm 1st Instar
Experimental: Tobacco Budworm [Heliothis virescens (Fabricius)]
A cotton plant with 2 true leaves expanded is dipped for 3 seconds with agitation in a 300 ppm solution. A 1.25 to 2 cm square of cheesecloth with about 50 to 100 budworm eggs 0-24 hours old is also dipped in the test solution and placed on one leaf to dry. The leaf with the treated budworm eggs is removed from the plant and placed in a 236.6 ml (8-oz) Dixie cup with a wet 5 cm piece of dental wick and covered with a lid. The other leaf is placed in a similar cup with a wick and a piece of cheesecloth infested with 50-100 newly hatched larvae is added before covering the cup with a lid. After 3 days at 26.7° C., observations of egg hatch are made as well as kill of newly hatched larvae, any inhibition of feeding, or interference of any sort with normal development.
(§1) Compounds rated active (8 or 9) are further tested at reduced concentrations in 50% acetone:50% water.

[2] = system: Tobacco Budworm [Heliothis virescens (Fabricius)]; assay: whole plant or invertebrate; conditions: 72 h, read-out: % kill, Tobacco Budworm 3rd Instar
Experimental: Third Instar Three cotton plants with just expanded cotyledons are dipped in a 1000 ppm solution, and placed in a hood to dry. When dry, each cotyledon is cut in half and each half is placed in one of ten 29.6 ml plastic medicine cups containing a 1.25 cm dental wick saturated with water, and one third instar budworm larva is added. The cup is capped and held for 3 days at 26.7° C., after which mortality counts are made. Compounds rated active (8 or 9) are further tested at reduced concentrations in 50% acetone:50% water.

[3] = system: Southern Armyworm [Spodoptera eridania (Cramer)]; assay: whole plant or invertebrate; conditions: for mortality at 10 ppm / mortality at 100 ppm / mortality at 1000 ppm: 48 h, read-out: % kill, Southern Armyworm 3rd Instar; for pest or weed control at 1000 µg/mL: 168 h, second leaf, 7 days from original treatment, read-out: % kill, Southern Armyworm 3rd Instar, 7 days (residual activity)
Experimental: Southern Armyworm [Spodoptera eridania ([…] bean plant with just the primary leaves expanded to 7.6 to 10 cm is dipped for 3 seconds with agitation in a 1000 ppm solution and set in a hood to dry. […] The dish is covered and held at 26.7° C. After 2 days mortality counts and estimates of the amount of feeding are made. Compounds showing partial kill and/or inhibition of feeding are held for an extra day for further observations. All compounds showing activity as defined above are retested, using the second leaf on the bean plant, after an interval of 7 days from original treatment, as an assay of residual activity. Compounds rated active (8 or 9) are further tested at reduced concentrations in 50% acetone:50% water.

[4] = system: Cabbage Looper [Trichoplusia ni (Hubner)]; assay: Insecticide test, cabbage looper 3rd instar; conditions: 48 h, 2 days, 26.7° C., read-out: % kill, Cabbage Looper 3rd Instar
Experimental: Cabbage Looper [Trichoplusia ni (Hubner)]
A primary leaf of a cotton plant is dipped in the test solution and agitated for 3 seconds. It is then set in a hood to dry. Following this, the leaf is placed in a 10 cm petri dish containing a moist filter paper at the bottom and 10 third-instar loopers. The dish is covered and held at 26.7° C. After 2 days, mortality counts and estimates of feeding damage are recorded. Those materials showing partial kill and/or inhibition of feeding are held for another day for further observations.
as §1

SMILES | mortality at 300 ppm [1] | mortality at 100 ppm [2] | mortality at 1000 ppm [2] | mortality at 10 ppm [3] | mortality at 100 ppm [3] | mortality at 1000 ppm [3] | mortality at 10 ppm [4] | mortality at 100 ppm [4] | mortality at 1000 ppm [4] | mortality at 10 ppm [1] | mortality at 100 ppm [1] | mortality at 10 ppm [2] | pest or weed control at 1000 µg/mL [3]
CCCCC(CC)C(=O)N1CC(C)(C)CN=C1NN=C(C=Cc1ccc(C(F)(F)F)cc1)C=Cc1ccc(C(F)(F)F)cc1 (stereo not shown) | 0% | 40% | 100% | 0% | 100% | 100% | 80% | 90% | 100% |  |  |  | 
CC1(C)CN=C(NN=C(C=Cc2ccc(C(F)(F)F)cc2)C=Cc2ccc(C(F)(F)F)cc2)N(C(=O)C=Cc2ccccc2)C1 | 0% |  |  |  |  | 0% |  |  |  |  |  |  | 
CC1(C)CN=C(NN=C(C=Cc2ccc(C(F)(F)F)cc2)C=Cc2ccc(C(F)(F)F)cc2)N(C(=O)c2ccc(C(C)(C)C)cc2)C1 | 86 to 95% | 100% | 100% | 0% | 90% | 100% | 0% | 100% | 100% | 0 to 40% | 0 to 40% | 0% | 0%
CC1(C)CN=C(NN=C(C=Cc2ccc(Cl)cc2)C=Cc2ccc(Cl)cc2)N(C(=O)c2ccccc2)C1 |  | 0% | 100% | 30% | 100% | 100% | 0% | 100% | 100% | 0 to 40% | 41 to 60% |  | 100%
O=C(c1ccccc1)N1CCCCN=C1NN=C(C=Cc1ccc(C(F)(F)F)cc1)C=Cc1ccc(C(F)(F)F)cc1 | 0 to 40% |  |  |  |  |  |  |  |  |  |  |  | 
CCCCCCCC(=O)N1CCCCN=C1NN=C(C=Cc1ccc(C(F)(F)F)cc1)C=Cc1ccc(C(F)(F)F)cc1 | 0 to 40% |  |  |  |  |  |  |  |  |  |  |  | 
CCCCCCCCCCCCCCCC(=O)N1CCCCN=C1NN=C(C=Cc1ccc(C(F)(F)F)cc1)C=Cc1ccc(C(F)(F)F)cc1 | 0 to 40% |  |  |  |  |  |  |  |  |  |  |  | 
CC(=O)N1CCCCN=C1NN=C(C=Cc1ccc(C(F)(F)F)cc1)C=Cc1ccc(C(F)(F)F)cc1 |  | 70% | 100% | 100% | 0% | 100% | 0% | 100% | 100% | 0 to 40% | 41 to 60% | 0% | 100%
CC(=O)N1CC(C)(C)CN=C1N(N=C(C=Cc1ccc(C(F)(F)F)cc1)C=Cc1ccc(C(F)(F)F)cc1)C(C)=O |  | 0% | 100% | 0% | 100% | 100% | 41 to 60% | 86 to 95% | 100% |  |  |  | 0%
CC(C)=CC(=O)N1CC(C)(C)CN=C1NN=C(C=Cc1ccc(C(F)(F)F)cc1)C=Cc1ccc(C(F)(F)F)cc1 [R1=CF3, R3=(CH3)2 CCH] |  | 0% | 100% |  | 0% | 100% |  | 10% | 100% |  |  |  | 0%
CC(C)C(=O)N1CC(C)(C)CN=C1NN=C(C=Cc1ccc(C(F)(F)F)cc1)C=Cc1ccc(C(F)(F)F)cc1 [R1=CF3, R3=(CH3)2 CH] | 86 to 95% | 50% | 100% | 0% | 100% | 100% | 0% | 100% | 100% |  |  | 0% | 
CC(=O)N1CC(C)(C)CN=C1NN=C(C=Cc1ccc(C(F)(F)F)cc1)C=Cc1ccc(C(F)(F)F)cc1 [R1=CF3, R3=CH3, 1,5-bis(α,α,α-Trifluoro-p-tolyl)-1,4-pentadien-3-one, (1-acetyl-1,4,5,6-tetrahydro-5,5-dimethyl-2-pyrimidinyl)hydrazone] | 86 to 95% | 100% | 100% | 0% | 100% | 100% | 41 to 60% | 86 to 95% | 100% |  | 0 to 40% | 40% | 100%
CCCCC(=O)N1CC(C)(C)CN=C1NN=C(C=Cc1ccc(C(F)(F)F)cc1)C=Cc1ccc(C(F)(F)F)cc1 [R1=CF3, R3=n-C4 H9] | 86 to 95% | 40% | 100% | 0% | 100% | 100% |  | 100% | 100% |  |  |  | 100%
CCCCCC(=O)N1CC(C)(C)CN=C1NN=C(C=Cc1ccc(C(F)(F)F)cc1)C=Cc1ccc(C(F)(F)F)cc1 [R1=CF3, R3=n-C5 H11] |  | 70% | 100% | 0% | 100% | 100% | 0% | 50% | 100% |  |  | 0% | 
CCCCCCCC(=O)N1CC(C)(C)CN=C1NN=C(C=Cc1ccc(C(F)(F)F)cc1)C=Cc1ccc(C(F)(F)F)cc1 [R1=CF3, R3=n-C7 H15] |  | 0% | 100% | 0% | 90% | 100% |  | 90% | 100% |  |  |  | 
CCCCCCCCC=CCCCCCCCC(=O)N1CC(C)(C)CN=C1NN=C(C=Cc1ccc(C(F)(F)F)cc1)C=Cc1ccc(C(F)(F)F)cc1 [R1=CF3, R3=n-C8 H17CHCH(CH2)7] |  | 100% | 100% | 20% | 100% | 100% | 0% | 100% | 100% | 0 to 40% | 100% | 0% | 100%
CCCCCCCCCC(=O)N1CC(C)(C)CN=C1NN=C(C=Cc1ccc(C(F)(F)F)cc1)C=Cc1ccc(C(F)(F)F)cc1 [R1=CF3, R3=n-C9 H19] |  | 100% | 100% |  | 0% | 100% | 0% | 60% | 100% |  |  | 0% | 
CCCCCCCCCCCC(=O)N1CC(C)(C)CN=C1NN=C(C=Cc1ccc(C(F)(F)F)cc1)C=Cc1ccc(C(F)(F)F)cc1 [R1=CF3, R3=n-C11 H23] |  | 70% | 100% | 0% | 100% | 100% | 0% | 70% | 100% |  |  | 0% | 
CCCCCCCCCCCCCC(=O)N1CC(C)(C)CN=C1NN=C(C=Cc1ccc(C(F)(F)F)cc1)C=Cc1ccc(C(F)(F)F)cc1 [R1=CF3, R3=n-C13 H27] |  | 90% | 100% |  | 0% | 100% | 0% | 60% | 100% |  |  | 0% | 
CCCCCCCCCCCCCCCC(=O)N1CC(C)(C)CN=C1NN=C(C=Cc1ccc(Cl)cc1)C=Cc1ccc(Cl)cc1 [R1=Cl, R3=n-C15 H31] |  | 0% | 100% |  | 0% | 100% |  | 0% | 100% |  |  |  | 100%
